Experimental data reported in US20240400547A1, “2,6-PIPERIDINEDIONE COMPOUND AND APPLICATION THEREOF” (MEDSHINE DISCOVERY INC., priority 2021, published 2024).
Where a name gives a salt, the structure may show the parent alone.

Tested on: human B-cell lymphoma OCI-LY10 cells
Experiment: In vivo efficacy in SCID mouse xenograft model of human B-cell lymphoma OCI-LY10 cells
Design: species or system SCID mice
Details: for Tumor volume (Day 0): Day 0 (grouping, baseline); for Tumor volume (Day 0) / Tumor volume (Day 28): average, SEM in next grid line
Procedure: The study evaluates the antitumor effect of the test compounds using a SID mouse xenograft model of human B-cell lymphoma OCI-LY10 cells.
• 1. Experimental animals: SCID mice, female, 6 to 8 weeks old, weighing 17 to 20 g. Beijing Vital River Laboratory Animal Technology Co., Ltd. • 2. Cell line: The human B-cell lymphoma OCI-LY10 cell line was purchased from Nanjing Cobioer Biosciences Co. Ltd (Cat. No CBP60558).
OCI-LY10 cells were cultured in IMDM medium containing 20% FBS and maintained in a 37° C. incubator with 5% CO2 and saturated humidity. Log phase OCI-LY10 cells were collected, resuspended in IMDM basic medium, and mixed 1:1 with Matrigel. The cell concentration was adjusted to 4×10^7/mL. Under sterile conditions, 0.1 mL of the cell suspension was inoculated subcutaneously into the right flank of SCID mice, with an inoculation concentration of 4×10^6/0.1 mL/mouse.
For the pharmacological experiment, once the tumors reached a certain size, animals with tumors that were either too large, too small, or irregularly shaped were eliminated. Animals with tumor volumes between 167.65 and 231.29 mm^3 were selected. Based on tumor volume, the animals were divided into groups using a random grouping method, with each group consisting of six mice, and the average tumor volume was approximately 201.15 mm^3. The day of grouping was designated as Day 0, and dosing began according to the body weight of the animals. The pharmacological study period lasted for 28 days, with dosing once a day and a 24-hour interval between doses. Intragastric administration was used for administration. During the experiment, the body weight and tumor size of the animals were measured twice a week. Clinical symptoms were observed and recorded daily.
The test compounds were administered at doses of 10 mg/kg, 30 mg/kg, and 100 mg/kg, with a solvent composition of 10% DMSO/10% Solutol/80% H2O. The formula for calculating tumor volume (TV) was: 1/2×a×b^2, where a and b were the measured length and width of the tumor, respectively. The formula for calculating the Tumor Growth Inhibition (TGI) rate was: TGI (%)=[(1−(average tumor volume at the end of administration in a treatment group−average tumor volume at the beginning of administration in this treatment group))/(average tumor volume at the end of treatment in the vehicle control group−average tumor volume at the beginning of treatment in the vehicle control group)]×100%. Relative Tumor Proliferation rate T/C (%): the calculation formula was as follows: T/C %=TRTV/CRTV×100% (TRTV: average RTV of the treatment group; CRTV: average RTV of the negative control group). According to the results of tumor measurement, the relative tumor volume (RTV) was calculated, and the calculation formula was RTV=Vt/V0, where V0 was the tumor volume measured at the time of group administration (i.e. Day 0), VT was the tumor volume at a certain measurement, and TRTV and CRTV were taken from the same day's data.
In this study, experimental data were presented in Mean±SEM.
Statistical analysis was performed using IBM SPSS Statistics software based on the RTV data at the end of the experiment. For comparisons between two groups, a T test was used. For comparisons among three or more groups, one-way ANOVA was utilized. If the variance was homogenous (no significant difference in F value), Tukey's method was applied for analysis. If the variance was heterogeneous (significant difference in F value), the Games-Howell method was used for testing. A p-value of […] was considered statistically significant.

[1] = 10 mg/kg intragastric once a day
[2] = 30 mg/kg intragastric once a day
[3] = 100 mg/kg intragastric once a day

## O=C1CCC(c2noc3ccc4c(NC(=O)CN5CCN(C[C@H]6CC[C@H](n7cc(NC(=O)c8coc(-c9ccnc(NCC%10CC%10)c9)n8)c(C(F)F)n7)CC6)CC5)cccc4c23)C(=O)N1 (stereo partly drawn) [Hydrochloride of WX014]
[1]
  Tumor volume (Day 0): 202.43 mm^3
  T/C (%) (Day 28): 47.40%
  TGI (%) (Day 28): 60.43%
  Tumor volume (Day 28): 685.61 mm^3
[2]
  Tumor volume (Day 0): 199.80 mm^3
  T/C (%) (Day 28): 23.07%
  TGI (%) (Day 28): 89.94%
  Tumor volume (Day 28): 322.68 mm^3
[3]
  Tumor volume (Day 0): 199.75 mm^3
  T/C (%) (Day 28): 12.80%
  TGI (%) (Day 28): 100.96%
  Tumor volume (Day 28): 188.01 mm^3
